Data as given in patent US12697328B2, “Methods for treating metastasis with cathepsin C inhibitors” (Shanghai Institute of Nutrition and Health, Chinese Academy …, priority 2020, dated 2026).

T1: membrane-bound PR3 (Homo sapiens, UniProt P24158)
T1 construct: endogenous in cells; host or cells: human peripheral-blood neutrophils (whole-cell suspension)
T1 sequence (P24158 28-248): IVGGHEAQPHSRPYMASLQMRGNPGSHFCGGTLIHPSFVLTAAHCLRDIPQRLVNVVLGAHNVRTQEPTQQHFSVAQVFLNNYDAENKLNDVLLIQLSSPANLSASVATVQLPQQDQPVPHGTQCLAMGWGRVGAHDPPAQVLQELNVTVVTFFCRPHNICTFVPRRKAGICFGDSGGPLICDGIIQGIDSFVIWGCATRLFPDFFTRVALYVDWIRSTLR

B1: rhPR3: recombinant human active PR3 (protein, UniProt P24158 28-248, looked up)
Myeloblastin: IVGGHEAQPHSRPYMASLQMRGNPGSHFCGGTLIHPSFVLTAAHCLRDIPQRLVNVVLGAHNVRTQEPTQQHFSVAQVFLNNYDAENKLNDVLLIQLSSPANLSASVATVQLPQQDQPVPHGTQCLAMGWGRVGAHDPPAQVLQELNVTVVTFFCRPHNICTFVPRRKAGICFGDSGGPLICDGIIQGIDSFVIWGCATRLFPDFFTRVALYVDWIRSTLR

Columns and labels:
Format in all cases: cell-based
IL-1β = IL-1β secretion of neutrophils pre-treated with CM of SCP28 cancer cells (ELISA); conditions: human neutrophils pre-treated with CM of SCP28 with CTSC overexpressed; FIG. 7H
Protocol: ELISA kits were used to assay the levels of human IL-1β (88-7621-88, ThermoFisher), mouse IL-1β (432604, Biolegend), mouse IL6 (88-7064-88, ThermoFisher), mouse CCL3 (88-56013-88, ThermoFisher) in cell culture supernatants or sera according to the manufacturer's instruction. Briefly, 96-well MaxiSorp™ ELISA Plates (44-2404, ThermoFisher) was coated with capture antibody overnight at 4° C. in coating buffer (15 mM of Na2CO3, 35 mM of NaHCO3, at pH 9.6). After three washes in PBS, the wells were blocked with 5% BSA in PBS for 45 min at room temperature. Then, 100 μl of cell culture supernatants or sera and standard samples were added into the wells and incubated for 2 h at room temperature, and the plates were washed three times with washing buffer (1% BSA, 0.05% Tween-20 in PBS). Next, biotin-conjugated detection antibody in 2.5% BSA was added into the wells and incubated for 2 h at room temperature. After three washes with washing buffer, HRP-streptavidin was incubated for 45 min at room temperature. Then, signals were detected using TMB solution and read at 450 nm.

murine neutrophils = experiment: Reactive oxygen species (ROS) analysis of neutrophils pre-treated with 4T07 conditioned medium; conditions: 4T07 CM with CTSC overexpressed, inhibitors 10 μM, FIGS. 8C, 8E
Protocol: To measure the ROS levels, neutrophils were cultured in cancer cell CM or non-conditioned medium, and treated with DMSO or various inhibitors, including Sivelestat (10 μM), BAY11-7082 (10 μM) and SB203580 (10 μM) for 1 h at 37° C. Cells were then harvested and resuspended in assay buffer (PBS, 4 mM EGTA, pH 7.4, containing 10 μM CM-H2DCFDA, Invitrogen), incubated for 15 min at 37° C. in dark, washed with pre-chilled PBS, followed by FACS analysis within 30 min.
The release of reactive oxygen species (ROS) by neutrophils is known to induce NET formation. […] Commum. 6, 6673 (2015).
ROS analysis of murine neutrophils pre-treated with 4T07 conditioned medium show increased ROS production results from CTSC overexpression (FIG. 8E).

4T07 cancer cells = experiment: Three-dimensional spheroid culture of 4T07 cells in neutrophil medium; conditions: rmTSP-1 alone, FIG. 8H
Protocol: The procedure of 3D spheroids culture assay was previously reported (Taylor et al., “Lysyl oxidase contributes to mechanotransduction-mediated regulation of transforming growth factor-beta signaling in breast cancer cells,” Neoplasia 13:406-418 (2011)). Briefly, 4T07 cells (200 per well) were cultured in 48-well plates on 100% growth-factor-reduced Matrigel (356231, BD) cushions in spheroid medium (a 1:1 mixture of 1% FBS DMEM and medium from neutrophils cultured in the cancer cell CM, 50% Matrigel supplemented with 50 μg/ml mTSP-1 (7859-TH-050). Upon completed gelation, 250 μl of culture medium (a 1:1 mixture of 1% FBS DMEM and medium from neutrophils cultured in the cancer cell CM) with 10 μg/ml mTSP-1 (7859-TH-050) was added to each well and the culture medium was changed every three days. On day 7-10, the numbers of the spheroids were analyzed.
When both rmTSP-1 and an IL6-blocking antibody are added to CTSC overexpressing 4T07 conditioned medium, spheroid growth is inhibited (FIG. 8I, left panel). […] The inhibitory effects of α-IL6, DNase I, and a combination thereof, on spheroid formation can be seen in the images provided in FIG. 8I.

membrane-bound PR3 = biological target: T1, membrane-bound PR3; experiment: Membrane-bound PR3 activity of neutrophils cultured with CM of SCP28 cells overexpressing CTSC; conditions: Sivelestat 10 μM, Alvelestat 10 μM, CTSGi 20 μM, FIG. 7D
Protocol: The procedure of enzyme activity assays were conducted as previously reported (Korkmaz et aL, “Neutrophil proteinase 3 and dipeptidyl peptidase I (cathepsin C) as pharmacological targets in granulomatosis with polyangiitis (Wegener granulomatosis),” Semin. Immunopathol. 35:411-421 (2008)). The PR3 or NE enzymatic activity was quantified by detecting the rate of hydrolysis of the PR3-specific substrate (Abz)-VADnorVADRQ-(EDDnp) or NE specific substrate (Abz)-APEEIMRRQ-(EDDnp) by cell suspension or free enzymes. To analyze membrane-bound PR3 activity, neutrophils were cultured in cancer cell CM or non-conditioned medium, and treated with DMSO or various inhibitors, including Sivelestat (10 μM), Alvelestat (10 μM) and CTSGi (20 μM) for 30-45 min at 37° C. Then, cells were suspended in activity buffer (5×10^6 per ml, PBS, 4 mM EGTA, pH 7.4) with 15 μM of the PR3-specific substrate, and the kinetic of hydrolysis was followed by measuring the fluorescence at λex=320 nm and λem=420 nm. For activation of PR3 in isolated plasma membrane fraction, recombinant human CTSC (1071-CY, R&D) was activated according to the manufacturer's instruction. […] The activity of free PR3 and NE were measured in the assay buffer (50 mM Tris, 750 mM NaCl, pH 7.4) with 15 μM specific substrates by recording the fluorescence at λex=320 nm and λem=420 nm. […]

p38 = p38 phosphorylation in neutrophils pre-treated with 4T1 conditioned medium and/or rhPR3; conditions: murine neutrophils pre-treated with 4T1 CM and/or rhPR3, regardless of CTSC knockdown; FIG. 8D
Protocol: Cultured cells were collected by scraper or trypsinized and then lysed with lysis buffer (50 mM Tris-HCl, 150 mM NaCl, 1% NP-40 detergent, 0.5% sodium deoxycholate, 0.1% SDS with phosphatase and protease inhibitors), and dispersed tissue were homogenized in RIPA buffer on ice for 15 min, followed by centrifugation at 17,000 g for 15 min. The protein concentration was measured with a BCA Protein Assay Kit. Proteins of […] were loaded for membrane proteins, IL-1β processing, p65 phosphorylation and the other assays, respectively, and separated on 8-12% SDS-polyacrylamide gel. For cancer cell conditioned medium (CM) collection, cells were grown to ~80% confluence in 10 cm culture dishes. After three times washing with serum-free medium at 37° C., the cells were incubated in serum-free medium at 37° C. for 24 h. The CM were collected, centrifuged at 2,000 g for 10 min, filtrated by 0.22 μm filters, stored at −80° C. until used. The secreted proteins in CM were collected by TCA precipitation. Briefly, 25% v/v TCA was added into 1 ml CM with phosphatase and protease inhibitors, incubated overnight at 4° C., and then centrifuged at 20,000 g for 60 min, after which the supernatant was discarded and the pellet was washed twice with 1 ml pre-chilled acetone, centrifuged again at 20,000 g for 5 min at 4° C. […]

Row | Molecule | IL-1β levels (secretion) of neutrophils (IL-1β) | ROS production / ROS levels (murine neutrophils) | further results
1 | Cc1ccc(S(=O)(=O)/C=C/C#N)cc1 [BAY 11-7082] | does not reduce | no effect | –
2 | C[S+]([O-])c1ccc(-c2nc(-c3ccncc3)c(-c3ccc(F)cc3)[nH]2)cc1 (centres unmarked) [SB203580] | – | significantly reduces | –
3 | rmTSP-1: recombinant murine TSP-1, a metastasis-suppressive ECM protein | – | – | spheroid growth of 4T07 cancer cells (4T07 cancer cells; CTSC overexpressing 4T07 conditioned medium): does not block; spheroid growth of 4T07 cancer cells (4T07 cancer cells; neutrophil medium pre-treated with PMA): unable to block
4 | Cc1c(-c2ccnn2C)cc(C(=O)NCc2ccc(S(C)(=O)=O)cn2)c(=O)n1-c1cccc(C(F)(F)F)c1 [Alvelestat] | only PR3 inhibitor Silvelestat reduces | – | upregulated PR3 activity resulting from CTSC overexpression (membrane-bound PR3): no effect
5 | B1 | – | – | p38 phosphorylation (p38): increased
